Key:
neuron cultures = experiment: Neuron cultures, synapses (PSD95/Synaptophysin puncta) at DIV14; format: cell-based; details: DETA 150 μM and ODQ 100 μM for 4 hrs right before exposure to gases at DIV7
Method: Neuron cultures were transfected with GFP-AAV virus at DIV-4 and were exposed to NO donor (DETA) 150 μM and sGC inhibitor (ODQ) 100 μM for 4 hrs right before exposure to gases at DIV7. Cells were returned back to incubator with half media change every second day. At DIV14, cells were fixed and stained with PSD95 and Synaptophysin. […] Scale bar is 5 μm. FIG. 23B: Synapse were analyzed using puncta analyzer plugin as shown in methods section.

primary neuron cultures = experiment: Primary neuron cultures, long thin spines and filopodia at DIV7; format: cell-based; details: for effect on PDZ2WT-induced loss of long thin spines and filopodia at DIV7: PDZ2WT peptide 1 μM 4 hrs; for effect on PDZ2WT-induced loss of long thin spines and filopodia at DIV7 / effect on isoflurane-induced loss of long thin spines and filopodia at DIV7: DETA NONOate 150 μM, ODQ 100 μM added to NO donor; for effect on isoflurane-induced loss of long thin spines and filopodia at DIV7: isoflurane 1.5% 4 hrs
Method: Primary neuron cultures were exposed to control gas (25% O2, 5% CO2, bal N2), isoflurane (1.5% ISO in 25% O2, 5% CO2, bal N2), DETA NONOate NO donor 150 μM and sGC inhibitor ODQ 100 μM for 4 hrs. […] MAP2 dendrite marker, green. Drebrin A/E immature spine/filopodia marker, red. Scale bar is 5 μm. FIG. 20B, Density of long thin spines and filopodia at DIV7 among exposed groups analyzed using Imaris 93.1;
MAP2, green. Drebrin, red. Scale bar is 5 μm. FIG. 21B, show the density of long thin spines and filopodia among exposed groups;
Neuron cultures were exposed to control gas (25% O2, 5% CO2, balance N2) or sevoflurane (2.1% ISO in 25% O2, 5% CO2, balanced N2) for 4 hrs. […] Scale bar is 5 μm. FIG. 22B, Density of long thin spines and filopodia among exposed groups; and […]

[1] = test system: PSD-95 or PSD-93 and the NMDA receptor or nNOS; details: clinically relevant concentrations; Fang et al., 2003; Tao et al., 2015; cited from earlier work
[2] = test system: hippocampal CA1 LTP (Schaffer collateral pathway); experiment: Extracellular field-potential recordings, LTP in hippocampal slices at PND21; format: in vivo, mice; details: molsidomine 4 mg/kg ip after PND7 exposure
Method: 1.3.2 Anesthesia, Peptide, and Molsidomine Injections. PND7 control and experimental mice were placed in a clear plastic cone and body temperature maintained by a heating blanket set to 35° C. Vital signs and physiological monitoring were assessed using PhysioSuite® (Kent Scientific Corporation, Torrington, Conn., USA) and blood gasses were collected arterially. […] Note that lower concentrations of 02 can be used, e.g., between 20% to 100% 02, including 20%, 25%, 30%, 35%, 40%, 45%, 50%, 55%, 60%, 65%, 70%, 75%, 80%, 85%, 90%, 95%, 96%, 97%, 98%, 99%, and 100% 02. Naïve animals were left with the dams. Anesthesia was initiated with 2.4% ISO in 100% oxygen for 2 min and tapered down to 1.5% within 15 min. Exposure to 1.5% ISO was continued for 3 hours and 45 min (total 4 hours ISO). Control ‘CON’ animals were exposed to 100% oxygen only. At the end of the exposure animals were maintained in oxygen on the heating blanket for 10 min then returned to dams. […] Tao and Johns, 2008. A single injection of peptide was given ip. […]
1.3.6.2. […] Synaptic responses were recorded using a MultiClamp 700B amplifier, and the signal was digitized with Digidita 1440A, analyzed with pClamp10 and stored on a personal computer. […] Measurements of the fEPSP slopes were made during the rising phase (5-50% of the peak) and the values normalized to the mean values recorded in 20-min baseline. […]

C57BL6 mice = experiment: Novel object recognition at PND21; format: in vivo; details: molsidomine 4 mg/kg ip after PND7 exposure, PND21
Method: 1.3.2 Anesthesia, Peptide, and Molsidomine Injections. PND7 control and experimental mice were placed in a clear plastic cone and body temperature maintained by a heating blanket set to 35° C. Vital signs and physiological monitoring were assessed using PhysioSuite® (Kent Scientific Corporation, Torrington, Conn., USA) and blood gasses were collected arterially. […] Note that lower concentrations of 02 can be used, e.g., between 20% to 100% 02, including 20%, 25%, 30%, 35%, 40%, 45%, 50%, 55%, 60%, 65%, 70%, 75%, 80%, 85%, 90%, 95%, 96%, 97%, 98%, 99%, and 100% 02. Naïve animals were left with the dams. Anesthesia was initiated with 2.4% ISO in 100% oxygen for 2 min and tapered down to 1.5% within 15 min. Exposure to 1.5% ISO was continued for 3 hours and 45 min (total 4 hours ISO). Control ‘CON’ animals were exposed to 100% oxygen only. At the end of the exposure animals were maintained in oxygen on the heating blanket for 10 min then returned to dams. […] Tao and Johns, 2008. A single injection of peptide was given ip. Separate peptide cohorts were injected in parallel with mice undergoing exposure to anesthesia or O2 control. Purification of fusion peptides was performed by Creative BioMart (Shirley, N.Y.) and verified by Coomassie blue staining and Western blot analysis and then stored in 10% glycerol/phosphate buffered saline at −80° C. until use. The Tat-PSD-95 PDZ2WT and MUT plasmids used to generate proteins containing an amino-terminal, in-frame, 11-amino-acid, minimal transduction domain (residues 47-57 of human immunodeficiency virus Tat protein) termed Tat. […] Fang et al., 2003. The NO donor molsidomine [(N-[ethoxycarbonyl]-3-[4-morpholinosydnomine] (Sigma, St. Louis, Mo.) was injected at 4 mg/kg into mice ip in 100 μL sterile saline as previously described. The NO donor was added immediately following cessation of anesthesia or control (O2) exposure, i.e., the NO donor was injected 4 hours after onset of anesthesia. One of ordinary skill in the art upon review of the present disclosure would appreciate that the NO donor could be administered at other times during anesthesia, including at the onset of anesthesia. Control animals were injected ip with the vehicle (saline).
1.3.7 Novel Object Recognition. The novel object recognition (NOR) procedure was based upon the original Ennaceur et al., 1988, procedure and was used to assess nonspatial hippocampal memory. Clark et al., 2000; Baker and Kim, 2002; Reger et al., 2009. It consisted of a training ‘familiarization’ phase followed by a testing phase. During training, mice were allowed to freely explore within an opaque box (40 cm W×40 cm L×34 cm H) containing two identical objects for 10 min. Data were recorded with a video camera and time spent with each object was recorded using ANYmaze software (Stoelting). Object investigation time was determined by the amount of time the mouse spent in the zone immediately surrounding the object. […] After 2 h, object recognition was tested, using the same procedure as in training except that a novel object was substituted for one of the familiar training objects and mice were allowed to explore for 5 min. Mice inherently prefer to explore novel objects; thus, a preference for the novel object indicates intact memory for the familiar object.

ERK = experiment: Western blot, phosphorylation status of ERK in hippocampal tissues; format: in vivo; details: PND7 mice; BAY 60-7550 3 mg/kg 30 min, molsidomine 4 mg/kg 30 min
Method: PND7 mice were exposed to isoflurane (1.5% ISO in 02, 4 hr), control gas (100% O2, 4 hr), PDE inhibitor (BAY 60-7550, 3 mg/kg, 30 min), or NO donor (molsidomine, 4 mg/kg, 30 min), we harvested hippocampal tissues for Western blotting to assess the phosphorylation status of ERK.

[3] = test system: hippocampal dendritic mushroom spines (dentate gyrus); format: in vivo, mice; details: molsidomine 4 mg/kg ip after PND7 exposure, PND49
Method: PND7 control and experimental mice were placed in a clear plastic cone and body temperature maintained by a heating blanket set to 35° C. Heart rate (HR) and oxyhemoglobin saturation (SpO2) were continuously monitored using pulse-oximetry (PhysioSuite, Kent Scientific). Arterial blood was collected by terminal cardiac puncture of the left ventricle from sentinels and pH (pHa) determined using a blood gas machine (ABL800 FLEX Series Radiometer). […] Naïve control animals were left with the dams. Control ‘CON’ animals were exposed to oxygen only. Anesthesia was initiated with 2.4% isoflurane in oxygen for 2 min and tapered down to 1.5% within 15 min. Exposure to 1.5% isoflurane was continued for 3 hours and 45 min (total 4 hours ISO). At the end of the exposure animals were maintained in oxygen on the heating blanket for 10 min then returned to dams. […] Tao and Johns, 2008. Purification of fusion peptides was performed by Creative BioMart (Shirley, N.Y.) and verified by Coomassie blue staining and Western blot analysis and then stored in 10% glycerol/phosphate-buffered saline at −80° C. until use. The Tat-PSD-95 PDZ2WT and MUT plasmids used to generate proteins containing an amino-terminal, in-frame, 11-amino-acid, minimal transduction domain (residues 47-57 of human immunodeficiency virus Tat protein) termed Tat. […] Fang et al., 2003. […]

Row | SMILES | effect on isoflurane-induced loss of synapses at DIV14 (neuron cultures) | effect on PDZ2WT-induced loss of long thin spines and filopodia at DIV7 (primary neuron cultures) | effect on isoflurane-induced loss of long thin spines and filopodia at DIV7 (primary neuron cultures) | PDZ domain-mediated protein interactions [1] | amount of pERK (ERK) | other results
1 | NCCN(CCN)/[N+]([O-])=N/O [DETA NONOate] | prevented loss of synapses | prevented loss of immature spines | prevented loss of immature spines | – | – | –
2 | FC(F)(F)C(Cl)Br (centres unmarked) [halothane, 2-bromo-2-chloro-1,1,1-trifluoroethane] | – | – | – | can disrupt PDZ domain-mediated protein-protein interactions in vitro and in vivo | – | –
3 | CCOC(=O)Nc1c[n+](N2CCOCC2)no1 [molsidomine, N-ethoxycarbonyl-3-morpholinosydnonimine] | – | – | – | – | significant increases in the amount of pERK | effect of NO donor on impairment in LTP caused by ISO or PDZ2WT peptide [2]: prevents impairment in LTP and recognition memory; effect of NO donor on impairment in recognition memory caused by ISO or PDZ2WT peptide (C57BL6 mice): prevents impairment in LTP and recognition memory; effect of NO donor on decrease in mushroom spine density caused by isoflurane or PDZ2WT peptide [3]: prevents the decrease in mushroom spine density
4 | O=c1onc2cnc3ccccc3n12 [ODQ] | blocked the prevention with DETA | blocked the prevention with NO donor | blocked the prevention with NO donor | – | – | –
5 | COc1ccc(Cc2nn3c([C@@H](CCCc4ccccc4)[C@@H](C)O)nc(C)c3c(=O)[nH]2)cc1OC [BAY 60-7550] | – | – | – | – | significant increases in the amount of pERK | –
6 | FCOC(C(F)(F)F)C(F)(F)F [sevoflurane, 1,1,1,3,3,3-hexafluoro-2-(fluoromethoxy)propane] | – | – | – | can disrupt PDZ domain-mediated protein-protein interactions in vitro and in vivo | – | long thin spines and filopodia at DIV7 after exposure (primary neuron cultures; 4 hrs: isoflurane 1.5%, PDZ2WT peptide 1 μM or sevoflurane 2.1%): loss of filopodia

From patent publication US20220087970A1, “PREVENTION OF ANESTHETIC-INDUCED NEUROCOGNITIVE DYSFUNCTION” (The Johns Hopkins University, priority 2019, published 2022)
